# Measurements as given in PubChem BioAssay AID1963826 (Molecular Pharmacology Branch, DTP, NCI, 2024).
# Test system: 926638-142-R-J1-PDC complex spheroid viability
# Assay: Anticancer human tumor 926638-142-R-J1-PDC patient-derived endometrial carcinoma cell line growth inhibition [POLQ]
# Details: for IC50: curve of first compound; for viability, T/C: stronger effect = lower value
# Method: Multicellular complex tumor spheroid response to Polymerase (POL) inhibitors (novobiocin, ART-558, RP6685) in combination with a variety of drugs and investigational agents in selected tumor cell lines
# The POL inhibitors (novobiocin, ART-558, and RP6685) were evaluated both individually and in combination with standard of care and investigational anticancer small molecules within a complex spheroid model of solid tumors. . Complex spheroids include a stromal component modeled by human endothelial cells (HUVEC) and fibroblasts modeled by human mesenchymal stem cells (MSCs). The concentration ranges selected for each drug and investigational agent were based upon clinically achievable concentrations if the clinical Cmax of the agent was known.
# Compounds. The drugs and investigational agents: novobiocin (NSC847541), ART-558 (NSC835418), RP-6685 (NSC848927), peposertib (NSC802822), ceralasertib (NSC780249), elimusertib (NSC800525), camonsertib (NSC841442), AZD-1390 (NSC803789), olaparib (NSC753686), talazoparib (NSC767125), rucaparib (NSC756644), sotorasib (NSC818433), MRTX-1133 (NSC836407), SN-38 (NSC673596), topotecan (NSC609699), epotoside (NSC141540), doxorubicin (NSC123127), gemcitabine (NSC613327), 5-fluorouracil (NSC19893), paclitaxel (NSC125973), vemurafenib (NSC761431), MSA-2 (NSC828583), SN-011 (NSC837082), adavosertib (NSC754352), prexasertib (NSC758257), carboplatin (NSC241240) and oxaliplatin (NSC266046), were obtained from the National Cancer Institute (NCI) Developmental Therapeutics Program Chemical Repository (21). The FDA-approved anticancer drug set is available from the Developmental Therapeutics Program at https://dtp.cancer.gov/organization/dscb/obtaining/. […] The stock solutions were prepared in dimethyl sulfoxide (DMSO, Sigma-Aldrich, St. Louis, MO, cat. D2650), except for the platinum compounds which were prepared in saline (Quality Biological, Gaithersburg, MD, cat. 114-055-101), at 800-fold the tested concentration and stored at -70 degrees C prior to their use. All drugs and investigational agents were tested over a range starting from a high concentration at or near the clinical Cmax and decreasing in half-log increments. If the clinical Cmax for an agent had not been determined, the highest concentration tested was 10 microM, except for SN-38, which was tested at a high concentration of 1 microM.
# Cell Culture. All cells were maintained in an incubator at 37 degrees C and 5% CO2 with 95% humidity. The PDC lines were cultured according to standard operating procedures established by the NCI PDMR (https://pdmr.cancer.gov). Table 3 of the manuscript, lists the cell lines along with the number of the three cell types plated to form the mct-spheroids and media for tumor cell growth. After thawing, all PDC lines, except 997537-175-T-J1-PDC and 415267-285-R-J2-PDC, were cultured in Matrigel-coated flasks prepared with a working solution of 1X Ham's F-12 nutrient mix, without supplementation (Thermo Fisher Scientific, cat. 11765054), 100 U/mL penicillin-streptomycin (Thermo Fisher Scientific, cat. 15140122), and 2.5% Matrigel (Corning Inc., Corning, NY, cat. 354248) for the first three passages. The two PDC lines 997537-175-T-J1-PDC and 415267-285-R-J2-PDC were cultured on uncoated flasks. The 857933-349-R-J2-PDC line was cultured in 6C/Colon 1B media containing advanced DMEM/F-12 (Thermo Fisher Scientific, cat. 12634028), 10 mM HEPES (Thermo Fisher Scientific, cat. 15630080), 1X GlutaMAX supplement (Thermo Fisher Scientific, cat. 35050061), 0.1 mg/mL primocin (InvivoGen, San Diego, CA, cat. ant-pm-2), 10% defined fetal bovine serum, heat inactivated (HyClone Laboratories Inc., Logan, UT, cat. SH30070.03HI), 50% L-WRN conditioned media (ATCC, cat. CRL-3276), 1.25 mM N-Acetyl-L-cysteine (Sigma-Aldrich, cat. A9165), 10 mM nicotinamide (Sigma-Aldrich, cat. N0636), 1X B-27 supplement (Thermo Fisher Scientific, cat. 17504044), 1X N-2 supplement (Thermo Fisher Scientific, cat. […]
# [1] = second compound 0.0316 µM, first compound 0.00316 µM
# [2] = second compound 0.0316 µM, first compound 0.01 µM
# [3] = second compound 0.0316 µM, first compound 0.0316 µM
# [4] = second compound 0.0316 µM, first compound 0.1 µM
# [5] = second compound 0.1 µM, first compound 0.00316 µM
# [6] = second compound 0.1 µM, first compound 0.01 µM
# [7] = second compound 0.1 µM, first compound 0.0316 µM
# [8] = second compound 0.1 µM, first compound 0.1 µM
# [9] = second compound 0.316 µM, first compound 0.00316 µM
# [10] = second compound 0.316 µM, first compound 0.01 µM
# [11] = second compound 0.316 µM, first compound 0.0316 µM
# [12] = second compound 0.316 µM, first compound 0.1 µM
# [13] = second compound 1 µM, first compound 0.00316 µM
# [14] = second compound 1 µM, first compound 0.01 µM
# [15] = second compound 1 µM, first compound 0.0316 µM
# [16] = second compound 1 µM, first compound 0.1 µM
# [17] = second compound 3.16 µM, first compound 0.00316 µM
# [18] = second compound 3.16 µM, first compound 0.01 µM
# [19] = second compound 3.16 µM, first compound 0.0316 µM
# [20] = second compound 3.16 µM, first compound 0.1 µM
# [21] = second compound 10 µM, first compound 0.00316 µM
# [22] = second compound 10 µM, first compound 0.01 µM
# [23] = second compound 10 µM, first compound 0.0316 µM
# [24] = second compound 10 µM, first compound 0.1 µM
# 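Also: spheroids exposed to drugs for one week before readout.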
# 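For viability, T/C in this document: percent viability relative to DMSO vehicle control wells set as 100%.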
smiles,measurement,setting,value
COc1cccc(OCCCN)c1-c1cc(Nc2cnc(C#N)cn2)n[nH]1 + Cc1cccc(N(C)C(=O)C2C(O)CCN2c2nc(C)cc(C(F)(F)F)c2C#N)c1,IC50,second compound 0.0316 µM,56.8 nM
same,IC50,second compound 0.1 µM,59.4 nM
same,IC50,second compound 0.316 µM,47.7 nM
same,IC50,second compound 1 µM,50.4 nM
same,IC50,second compound 3.16 µM,108 nM
same,IC50,second compound 10 µM,29 nM
same,"viability, T/C",[1],99.5%
same,"viability, T/C",[2],72.9%
same,"viability, T/C",[3],51.1%
same,"viability, T/C",[4],49.4%
same,"viability, T/C","second compound 0.0316 µM, first compound 0.316 µM",39.5%
same,"viability, T/C","second compound 0.0316 µM, first compound 1 µM",36%
same,"viability, T/C",[5],102%
same,"viability, T/C",[6],81.8%
same,"viability, T/C",[7],54.2%
same,"viability, T/C",[8],47.2%
same,"viability, T/C","second compound 0.1 µM, first compound 0.316 µM",46.1%
same,"viability, T/C","second compound 0.1 µM, first compound 1 µM",37.8%
same,"viability, T/C",[9],99.3%
same,"viability, T/C",[10],61.6%
same,"viability, T/C",[11],59.7%
same,"viability, T/C",[12],43.6%
same,"viability, T/C","second compound 0.316 µM, first compound 0.316 µM",44.1%
same,"viability, T/C","second compound 0.316 µM, first compound 1 µM",30.4%
same,"viability, T/C",[13],96.6%
same,"viability, T/C",[14],79.2%
same,"viability, T/C",[15],53.5%
same,"viability, T/C",[16],43.3%
same,"viability, T/C","second compound 1 µM, first compound 0.316 µM",49.2%
same,"viability, T/C","second compound 1 µM, first compound 1 µM",34.3%
same,"viability, T/C",[17],89.4%
same,"viability, T/C",[18],65.9%
same,"viability, T/C",[19],62.1%
same,"viability, T/C",[20],49.2%
same,"viability, T/C","second compound 3.16 µM, first compound 0.316 µM",47.5%
same,"viability, T/C","second compound 3.16 µM, first compound 1 µM",33.7%
same,"viability, T/C",[21],83.5%
same,"viability, T/C",[22],80.9%
same,"viability, T/C",[23],47%
same,"viability, T/C",[24],40.2%
same,"viability, T/C","second compound 10 µM, first compound 0.316 µM",38.6%
same,"viability, T/C","second compound 10 µM, first compound 1 µM",27.3%
CC[C@@]1(O)C(=O)OCc2c1cc1n(c2=O)Cc2cc3c(CN(C)C)c(O)ccc3nc2-1 + Nc1ccc(C#CCN(C(=O)Cc2ncc(C(F)(F)F)cc2C(F)(F)F)c2ccc(F)cc2)nn1,IC50,second compound 0.0316 µM,> 100 nM
same,IC50,second compound 0.1 µM,> 100 nM
same,IC50,second compound 0.316 µM,> 100 nM
same,IC50,second compound 1 µM,97.6 nM
same,IC50,second compound 3.16 µM,95.5 nM
same,IC50,second compound 10 µM,73.1 nM
same,"viability, T/C","second compound 0.0316 µM, first compound 0.000316 µM",105%
same,"viability, T/C","second compound 0.0316 µM, first compound 0.001 µM",96.1%
same,"viability, T/C",[1],84%
same,"viability, T/C",[2],73.4%
same,"viability, T/C",[3],71.5%
same,"viability, T/C",[4],46.6%
same,"viability, T/C","second compound 0.1 µM, first compound 0.000316 µM",112%
same,"viability, T/C","second compound 0.1 µM, first compound 0.001 µM",90%
same,"viability, T/C",[5],81.6%
same,"viability, T/C",[6],81.7%
same,"viability, T/C",[7],69.2%
same,"viability, T/C",[8],48.3%
same,"viability, T/C","second compound 0.316 µM, first compound 0.000316 µM",96.8%
same,"viability, T/C","second compound 0.316 µM, first compound 0.001 µM",109%
same,"viability, T/C",[9],86.2%
same,"viability, T/C",[10],66.6%
same,"viability, T/C",[11],64.1%
same,"viability, T/C",[12],56.3%
same,"viability, T/C","second compound 1 µM, first compound 0.000316 µM",100%
same,"viability, T/C","second compound 1 µM, first compound 0.001 µM",101%
same,"viability, T/C",[13],89.6%
same,"viability, T/C",[14],88.5%
same,"viability, T/C",[15],71.2%
same,"viability, T/C",[16],49.4%
same,"viability, T/C","second compound 3.16 µM, first compound 0.000316 µM",92.4%
same,"viability, T/C","second compound 3.16 µM, first compound 0.001 µM",92%
same,"viability, T/C",[17],89.7%
same,"viability, T/C",[18],78.6%
same,"viability, T/C",[19],74.6%
same,"viability, T/C",[20],48.1%
same,"viability, T/C","second compound 10 µM, first compound 0.000316 µM",91.2%
same,"viability, T/C","second compound 10 µM, first compound 0.001 µM",88.5%
same,"viability, T/C",[21],80.2%
same,"viability, T/C",[22],79.6%
same,"viability, T/C",[23],65%
same,"viability, T/C",[24],43.9%
